{"source": "patent US20220249413A1", "about": "“SWELL 1 MODULATORS FOR TREATMENT OF NON-ALCOHOLIC FATTY LIVER DISEASE, IMMUNE DEFICIENCIES, MALE INFERTILITY AND VASCULAR DISEASES” (priority 2019, published 2022)", "type_in_all_cases": "in vivo, mouse", "key": {"[1]": {"tested_on": "SWELL1", "assay": "SWELL1 expression in adipose tissue of treated T2D mice (Western blot)", "conditions": "5 mg/kg i.p.", "text": "Patients Human islets and adipocytes were obtained and cultured as described previously (Zhang et al., Nat Cell Biol, 19, 504-517, 2017; Kang et al., Nature Communications, 9, 367, 2018). The Patients involved in the study were anonymous and information such as gender, age, HbA1c, glucose levels and BMI only were available to the research team. The study was approved and carried out as per the guidelines of the University of Iowa Institutional Review Board (IRB). Animals All experimental procedures involving mice were approved by the Institutional Animal Care and Use Committee of the University of Iowa and Washington University at St. Louis. All C57BL/6 mice involved in study were purchased from Charles River Labs. Both KK.Cg-Ay/J (KKA^y) and KK.Cg-Aa/J (KKA^a) mice involved in study were gender and age-matched mice obtained from Jackson Labs (Stock No: 002468) and bred up for experiments. The mice were fed ad libitum with either regular chow (RC) or high-fat diet (Research Diets, Inc., 60 kcal % fat) with free access to water and housed in a light-, temperature- and humidity-controlled room. For high-fat diet (HFD) studies, only male mice were used and were started on HFD regimen at the age of 6-9 weeks. For all experiments involving KKA^y and KKA^a mice, both males and females were used at approximately 50/50 ratio. […] Based on GFP fluorescence, viral transduction efficiency was ˜90%. […]"}, "[2]": {"assay": "Metabolic phenotyping: fasting glucose, GTT, ITT", "text": "Patients Human islets and adipocytes were obtained and cultured as described previously (Zhang et al., Nat Cell Biol, 19, 504-517, 2017; Kang et al., Nature Communications, 9, 367, 2018). The Patients involved in the study were anonymous and information such as gender, age, HbA1c, glucose levels and BMI only were available to the research team. The study was approved and carried out as per the guidelines of the University of Iowa Institutional Review Board (IRB). Animals All experimental procedures involving mice were approved by the Institutional Animal Care and Use Committee of the University of Iowa and Washington University at St. Louis. All C57BL/6 mice involved in study were purchased from Charles River Labs. Both KK.Cg-Ay/J (KKA^y) and KK.Cg-Aa/J (KKA^a) mice involved in study were gender and age-matched mice obtained from Jackson Labs (Stock No: 002468) and bred up for experiments. The mice were fed ad libitum with either regular chow (RC) or high-fat diet (Research Diets, Inc., 60 kcal % fat) with free access to water and housed in a light-, temperature- and humidity-controlled room. For high-fat diet (HFD) studies, only male mice were used and were started on HFD regimen at the age of 6-9 weeks. For all experiments involving KKA^y and KKA^a mice, both males and females were used at approximately 50/50 ratio. In all experiments involving mice, investigators were kept blinded both during the experiments and subsequent analysis. Smod1 (DCPIB) treatment Smod1 (DCPIB, Tocris, #D1540), was dissolved in Kolliphor® EL (Sigma, #C5135). Either vehicle (Kolliphor® EL) or Smod1 (5 mg/kg of body weight/day) were injected (intraperitoneal, i.p.) using 1 cc syringe/26G/[…] needle daily for 4-10 days, and in one experiment, daily for 8 weeks. Adenovirus Adenovirus type 5 with Ad5-RIP2-GFP (4.1×10^10 PFU/ml) and Ad5-CAG-LoxP-stop-LoxP-3× Flag-SWELL1 (1×10^10 PFU/ml) were obtained from Vector Biolabs. Adenovirus type 5 with Ad5-CMV-Cre-wt-IRES-eGFP (8×10^10 PFU/ml) was obtained from the University of Iowa Viral Vector Core. Cell culture Wildtype (WT) and SWELL1 knockout (KO) 3T3-F442A (Sigma-Aldrich) cells were cultured and differentiated as described previously (Zhang et al., Nat Cell Biol, 19, 504-517, 2017). Preadipocytes were maintained in 90% DMEM (25 mM D-Glucose and 4 mM L-Glutamine) containing 10% fetal bovine serum (FBS) and 100 IU penicillin and 100 μg/ml streptomycin on collagen-coated (rat tail type-I collagen, Corning) plates. Upon reaching confluency, the cells were differentiated in the above-mentioned media supplemented with 5 μg/ml insulin (Cell Applications) and replenished every other day with the differentiation media. For insulin signaling studies on WT and KO adipocytes with or without SWELL1 overexpression (O/E), the cells were differentiated for 10 days and transduced with Ad5-CAG-LoxP-stop-LoxP-3× Flag-SWELL1 virus (MOI 12) on day 11 in 2% FBS containing differentiation medium. To induce the overexpression, Ad5-CMV-Cre-wt-IRES-eGFP (MOI 12) was added on day 13 in 2% FBS containing differentiation medium. The cells were then switched to 10% FBS containing differentiation medium from day 15 to 17. On day 18, the cells were starved in serum free media for 6 h and stimulated with 0 and 10 nM insulin for either 5 or 15 min. Either Ad5-CAG-LoxP-stop-LoxP-3× Flag-SWELL1 or Ad5-CMV-Cre-wt-IRES-eGFP virus transduced cells alone were used as controls. Based on GFP fluorescence, viral transduction efficiency was ˜90%.\nElectrophysiology Patch-clamp recordings of β-cells and mature adipocytes were performed as described previously (Zhang et al., Nat Cell Biol, 19, 504-517, 2017; Kang et al., Nature Communications, 9, 367, 2018). 3T3-F442A WT and KO preadipocytes were prepared as described in the Cell culture section above. […]"}, "[3]": {"assay": "Tolerability during chronic injection protocols", "conditions": "daily injections for up to 8 weeks, 5 mg/kg i.p.", "text": "Patients Human islets and adipocytes were obtained and cultured as described previously (Zhang et al., Nat Cell Biol, 19, 504-517, 2017; Kang et al., Nature Communications, 9, 367, 2018). The Patients involved in the study were anonymous and information such as gender, age, HbA1c, glucose levels and BMI only were available to the research team. The study was approved and carried out as per the guidelines of the University of Iowa Institutional Review Board (IRB). Animals All experimental procedures involving mice were approved by the Institutional Animal Care and Use Committee of the University of Iowa and Washington University at St. Louis. All C57BL/6 mice involved in study were purchased from Charles River Labs. Both KK.Cg-Ay/J (KKA^y) and KK.Cg-Aa/J (KKA^a) mice involved in study were gender and age-matched mice obtained from Jackson Labs (Stock No: 002468) and bred up for experiments. The mice were fed ad libitum with either regular chow (RC) or high-fat diet (Research Diets, Inc., 60 kcal % fat) with free access to water and housed in a light-, temperature- and humidity-controlled room. For high-fat diet (HFD) studies, only male mice were used and were started on HFD regimen at the age of 6-9 weeks. For all experiments involving KKA^y and KKA^a mice, both males and females were used at approximately 50/50 ratio. […] Based on GFP fluorescence, viral transduction efficiency was ˜90%."}, "[4]": {"assay": "Traced hyperinsulinemic euglycemic clamp in KKA^y mice"}, "[5]": {"assay": "NAFLD assessment: liver weight, histology, triglycerides, NAS in HFD mice", "conditions": "HFD mice treated chronically and intermittently over 21 weeks", "experimental": "Liver isolation, triglycerides and histology HFD mice treated with either vehicle or Smod1 were anesthesized with […] followed by cervical dislocation. Gross liver weights were measured and identical sections from right medial lobe of liver were dissected for further examinations. Total triglyceride content was determined by homogenizing 10-50 mg of tissue in 1.5 ml of chloroform:methanol (2:1 v/v) and centrifuged at 12000 rpm for 10 mins at 4° C. An aliquot, 20 ul, was evaporated in a 1.5 ml microcentrifuge tube for 30 mins. Triglyceride content was determined by adding 100 μl of Infinity Triglyceride Reagent (Fisher Scientific) to the dried sample followed by 30 min incubation at RT. The samples were then transferred to a 96 well plate along with standards (0-2000 mg/dl) and absorbance was measured at 540 nm and the final concentration was determined by normalizing to tissue weight. For histological examination, liver sections were fixed in 10% zinc formalin and paraffin embedded for sectioning. Haematoxylin and eosin (H&E) stained sections were then assessed for steatosis grade, lobular inflammation and hepatocyte ballooning for non-alcoholic fatty liver disease (NAFLD) scoring as described (Kleiner et al., Hepatology, 41, 1313-1321, 2005; Liang et al., PLoS One, 9, e115922, 2014; Rauckhorst et al., Mol Metab, 6, 1468-1479, 2017)."}, "[6]": {"conditions": "HFD-induced T2D mice and KKA^y model, 5 mg/kg i.p. 4-10 days"}, "[7]": {"conditions": "control KKA^a parental strain, 5 mg/kg x 4-10 days"}}}
{"compound": "CCCCC1(C2CCCC2)Cc2cc(OCCCC(=O)O)c(Cl)c(Cl)c2C1=O", "note": "(stereo not shown) [Smod1, 4-[(2-Butyl-6,7-dichloro-2-cyclopentyl-2,3-dihydro-1-oxo-1H-inden-5-yl)oxy]butanoic acid]", "values": [{"measurement": "augmentation of SWELL1 expression in adipose tissue", "setting": "[1]; HFD-fed T2D mice", "value": 2.3, "unit": "fold"}, {"measurement": "adipose SWELL1 expression", "setting": "[1]; KKA^y mice", "value": "levels comparable to both non-T2D C57/B6 mice and to the parental KKA^a parental strain"}, {"measurement": "random glucose 30 minutes after injection", "setting": "[2]; HFD fed C57BL/6 mice, 5 mg/kg i.p., acute (FIG. 23)", "value": "no evidence of exacerbated hyperglycemia"}, {"measurement": "fasting glucose (FG)", "setting": "[2]; [6]", "value": "normalized"}, {"measurement": "glucose tolerance (GTT)", "setting": "[2]; [6]", "value": "normalized"}, {"measurement": "insulin-tolerance (ITT)", "setting": "[2]; [6]", "value": "markedly improved"}, {"measurement": "glucose and insulin tolerance", "setting": "[2]; [7]", "value": "nor does it alter glucose and insulin tolerance"}, {"measurement": "hypoglycemia", "setting": "[2]; [7]", "value": "does not cause hypoglycemia"}, {"measurement": "FG, GTT and ITT compared to vehicle", "setting": "[2]; lean, non-T2D, glucose-tolerant mice", "value": "similar"}, {"measurement": "FG, GTT and ITT", "setting": "[2]; re-treated after 16 weeks of HFD feeding, HFD-induced T2D mice", "value": "marked improvements"}, {"measurement": "signs of toxicity", "setting": "[3]", "value": "no overt signs of toxicity"}, {"measurement": "glucose-infusion rate (GIR) to maintain euglycemia", "setting": "[4]; KKA^y mice, 5 mg/kg for 4 days", "value": "33.58 ± 3.4", "unit": "mg/kg/min"}, {"measurement": "reduction of hepatic glucose production (Ra)", "setting": "[4]; KKA^y mice, baseline (basal)", "value": "~1.6", "unit": "fold"}, {"measurement": "suppression of hepatic glucose production (Ra)", "setting": "[4]; KKA^y mice, during glucose/insulin infusion (clamp)", "value": 4.8, "unit": "fold"}, {"measurement": "enhancement of insulin stimulated 2-DG uptake", "setting": "[4]; brown fat, skeletal muscle, KKA^y mice", "value": "not in brown fat, or skeletal muscle"}, {"measurement": "insulin stimulated 2-DG uptake", "setting": "[4]; inguinal white adipose tissue (iWAT), KKA^y mice", "value": "7.0 ± 0.78", "unit": "nmol/min/g"}, {"measurement": "glucose-incorporation into glycogen", "setting": "[4]; liver, adipose and skeletal muscle", "value": "markedly increased"}, {"measurement": "insulin stimulated 2-DG uptake", "setting": "[4]; myocardium (Heart), KKA^y mice", "value": "451.3 ± 24.63", "unit": "nmol/min/g"}, {"measurement": "hepatic steatosis on histology", "setting": "[5]", "value": "marked reduction"}, {"measurement": "liver triglycerides", "setting": "[5]", "value": "marked reduction"}, {"measurement": "liver weights", "setting": "[5]; 5 mg/kg i.p.", "value": "marked reduction"}, {"measurement": "NAFLD activity score (NAS)", "setting": "[5]; vs vehicle", "value": "significantly improved"}]}
